Assays:
kynurenine-3-hydroxylase [1] = target: T1, kynurenine-3-hydroxylase (Rattus norvegicus, UniProt O88867); assay: Kynurenine-3-hydroxylase assay in the rat liver (radiometric, tritiated water release, rat liver mitochondrial extract); assay type: biochemical; design: Rat liver mitochondrial extract was used as enzymatic preparation for this assay; from tissue; host or cells: rat liver mitochondrial extract; details: 0.025 mM L-kynurenine, pH 8.1, 37° C., 30 min
Experimental: Kynurenine-3-hydroxylase Assay in the Rat Liver
The assay for kynurenine 3-hydroxylase was based on the enzymatic synthesis of tritiated water during the hydroxylation reaction. Radiolabeled water was quantified following selective adsorption of the isotopic substrate and its metabolite with activated charcoal.
Rat liver mitochondrial extract was used as enzymatic preparation for this assay.
The assay for kynurenine 3-hydroxylase activity was carried out at 37° C. for a time of 30 min. The reaction mixture of a total volume of […] was constituted of […] of suspended extract, 100 mM Tris/Cl^- buffer pH 8.1, 10 mM EDTA, 100 mM Kcl, 0.8 mM NADPH, 0.025 mM L-kynurenine, […] L-(3,5-^3 H)Kynurenine (10 Ci/mmol) and […] of different concentration of inhibitor solutions. After the incubation the reaction was terminated by the addition of 1 mL of 7.5% (w/v) activated charcoal, vortexed and centrifugated for 7 min.
A […] aliquot of supernatant was counted by scintillation spectroscopy in 5 ml of liquid scintillation.

kynurenine-3-hydroxylase [2] = target: T1, kynurenine-3-hydroxylase; assay: Kynurenine-3-hydroxylase assay in the rat brain (conversion of L-kynurenine to L-3-hydroxykynurenine, HPLC with coulometric detection); assay type: biochemical; details: rat brain homogenate; 50 μM L-kynurenine; pH 7.5; 60 min
Experimental: Kynurenine-3-hydroxylase Assay in the Rat Brain
Brain was homogenized in ice-cold 0.32 M sucrose and centrifuged at 12000×g for 30 min at 4° C. The pellet was washed three times with 0.32 M sucrose by centrifugation and suspended in 0.14 M KCl in 20 mM K-phosphate buffer at pH 7 (1 g tissue in 2 ml buffer).
The reaction mixture contained: 75 μl of suspended homogenate; 100 μl of substrate solution containing 50 mM K-phosphate buffer pH 7.5, 2 mM MgCl2, 0.4 mM NADPH, 50 μM L-kynurenine (final concentration), and 25 μl of different concentrations of inhibitor solutions. The reaction was stopped by addition of 200 μl of 1 M HClO4 after 60 min incubation. L-3-hydroxykynurenine formed was quantified by HPLC with coulometric detection at a working voltage of +0.2 V. The column was a 10 cm C18 reversed phase (3 μm. The mobile phase consisted of 950 ml distilled water, 20 ml acetonitrile, 9 ml triethylamine, 5.9 ml phosphoric acid, 100 mg sodium EDTA and 1.5 g heptanesulfonic acid. The flow rate was 1 ml/min.

[3] = tested on: N-methyl-D-aspartate (NMDA) receptor; details: cited from earlier work
neuronal cell cultures = details: relatively low concentrations; prolonged period of time or in combination with glutamate; cited from earlier work
CNS = details: cited from earlier work
[4] = tested on: excitotoxic neuronal damage evoked by QUIN; details: co-injected with QUIN; cited from earlier work
[5] = tested on: ionotropic excitatory aminoacid receptors; details: preferentially acting at the glycine co-agonist site of the NMDA receptor; cited from earlier work

T1 sequence (O88867 whole entry): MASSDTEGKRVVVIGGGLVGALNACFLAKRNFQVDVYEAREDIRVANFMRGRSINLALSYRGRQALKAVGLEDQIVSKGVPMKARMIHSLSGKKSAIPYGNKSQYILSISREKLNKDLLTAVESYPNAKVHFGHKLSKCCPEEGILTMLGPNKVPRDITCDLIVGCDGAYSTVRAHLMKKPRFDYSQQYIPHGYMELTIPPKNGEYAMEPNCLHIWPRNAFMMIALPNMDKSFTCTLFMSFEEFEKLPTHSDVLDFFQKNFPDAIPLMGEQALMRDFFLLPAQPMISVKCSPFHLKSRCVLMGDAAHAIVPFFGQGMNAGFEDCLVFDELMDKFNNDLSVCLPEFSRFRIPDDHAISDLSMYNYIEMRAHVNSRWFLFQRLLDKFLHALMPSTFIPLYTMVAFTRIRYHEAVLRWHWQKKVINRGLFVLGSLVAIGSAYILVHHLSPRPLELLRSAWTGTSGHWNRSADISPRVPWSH

Compound | IC50 (kynurenine-3-hydroxylase [1]) | IC50 (kynurenine-3-hydroxylase [2]) | also measured
COC(=O)C(CC(=O)c1ccc(Cl)c(Cl)c1)Cc1ccccc1 (racemic) [PNU 167531, (R,S)-Methyl-2-benzyl-4-(3',4'-dichlorophenyl)-4-oxo-butanoate] | 1.9 µM |  | 
O=C(CC(O)C(=O)O)c1cccc(Cl)c1 (racemic) [PNU 158789, (R,S)-2-hydroxy-4-(3'-chlorophenyl)-4-oxo-butanoic acid] | 1.8 µM | 0.45 µM | 
COC(=O)C(O)CC(=O)c1ccc(Cl)c(Cl)c1 (racemic) [PNU 161211, Methyl(R,S)-2-hydroxy-4-(3',4'-dichlorophenyl)-4-oxo-butanoate] | 5.6 µM | 3.1 µM | 
COC(CC(=O)c1ccc(F)c(F)c1)C(=O)O (racemic) [PNU 158380, (R,S)-2-methoxy-4-(3',4'-difluorophenyl)-4-oxo-butanoic acid] | 42.4 µM | 12.6 µM | 
O=C(O)C(O)C(Cc1ccccc1)C(=O)c1ccc(Cl)c(Cl)c1 (centres unmarked) [PNU 167536, 2-hydroxy-3-benzyl-4-(3',4'-dichlorophenyl)-4-oxo-butanoic acid] | 61.6 µM |  | 
COC(=O)CCC(=O)c1ccc(Cl)c(Cl)c1 [PNU 158381, Methyl 4-(3',4'-dichlorophenyl)-4-oxo-butanoate] | 5.7 µM |  | 
O=C(O)CC(C(=O)c1ccc(Cl)c(Cl)c1)c1ccccc1 (racemic) [PNU 167541, (R,S)-3-phenyl-4-(3',4'-dichlorophenyl)-4-oxo-butanoic acid] | 55 µM |  | 
O=C(O)CCC(=O)c1ccc(F)c(F)c1 [PNU 157720, 4-(3',4'-difluorophenyl)-4-oxo-butanoic acid] | 18.3 µM | 3.7 µM | 
O=C(CC(Cl)C(=O)O)c1ccc(Cl)c(Cl)c1 (racemic) [PNU 158781, (R,S)-2-chloro-4-(3',4'-dichlorophenyl)-4-oxo-butanoic acid] | 13.3 µM |  | 
O=C(O)CCC(=O)c1ccc(Cl)c(Cl)c1 [PNU 156588, 4-(3',4'-dichlorophenyl)-4-oxo-butanoic acid] | 3.9 µM | 0.9 µM | 
CC(CC(=O)c1ccc(F)c(F)c1)C(=O)O (racemic) [PNU 157952, (R,S)-2-methyl-4-(3',4'-difluorophenyl)-4-oxo-butanoic acid] | 55.1 µM | 3.9 µM | 
C=C(CC(=O)c1ccc(Cl)c(Cl)c1)C(=O)O [PNU 158432, 2-methyliden-4-(3',4'-dichlorophenyl)-4-oxo-butanoic acid] | 36 µM |  | 
O=C(O)c1cccnc1C(=O)O [QUIN, quinolinic acid] |  |  | agonism at the NMDA receptor [3]: highly selective agonist; neurotoxicity in neuronal cell cultures (neuronal cell cultures): neurotoxic; in vivo lesions and convulsions (CNS; in vivo): convulsions and axon sparing lesions; action when injected in the CNS (CNS): neurotoxin
O=C(O)c1cc(=O)c2ccccc2[nH]1 [KYNA, kynurenic acid] |  |  | prevention of QUIN-evoked excitotoxic neuronal damage [4]: able to prevent the excitotoxic neuronal damage; action when injected in the CNS (CNS): neuroprotective agent; antagonism of the ionotropic excitatory aminoacid receptors [5]: broad spectrum antagonist
CC(CC(=O)O)C(=O)c1ccc(Cl)c(Cl)c1 (racemic) [PNU 161243, (R,S)-3-methyl-4-(3',4'-dichlorophenyl)-4-oxo-butanoic acid] |  | 14.3 µM | 
